Experimental data: patent publication EP4667464A1 (Cyrus Therapeutics Inc., priority 2023, dated 2024)

What was measured:
[1] = system: lung cancer cell line H358 having the KRAS G12S variant; test: SynergyScreen combination efficacy (ATPlite 1Step cell viability); conditions: for Synergy 2: difference between Synergy 1 and cell death rate of Ex. 1-2 alone
Experimental: In order to measure cell viability, each well was treated with 24 µL of ATPlite 1Step™ (PerkinElmer) solution, then mixed for 2 minutes, and reacted by blocking light for 5 minutes, and then the luminescence signal was measured using an Envision multilabel reader (PerkinElmer).

[2] = system: lung cancer cell line NCI-H358 having the KRAS G12C variant; test: Cancer cell growth inhibition, 3D spheroids (CellTiter-Glo 3D); type: cell-based; conditions: Homo sapiens, NCI-H358, 120 h; 3D spheroids, 0.002-10 µM, 5 days; read-out: H358 cell viability
How it was run: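 NCI-H358 (KRAS G12C) spheroids lysed with CellTiter-Glo 3D for 30 min with shaking after 10 min at room temperature. Growth in compound-treated wells expressed relative to untreated wells set to 100%.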

[3] = molecular target: T1, KRAS G12C::SOS1 (Homo sapiens, UniProt Q07889); test: KRAS G12C::SOS1 protein-protein interaction (PPI) inhibition assay (HTRF); type: binding; conditions: 8 concentrations from 3 µM, three replicates; read-out: KRAS G12C::SOS1 PPI
T1 construct: purchased CISBIO 64KRASG12PEH
T1 sequence (Q07889 1-1333): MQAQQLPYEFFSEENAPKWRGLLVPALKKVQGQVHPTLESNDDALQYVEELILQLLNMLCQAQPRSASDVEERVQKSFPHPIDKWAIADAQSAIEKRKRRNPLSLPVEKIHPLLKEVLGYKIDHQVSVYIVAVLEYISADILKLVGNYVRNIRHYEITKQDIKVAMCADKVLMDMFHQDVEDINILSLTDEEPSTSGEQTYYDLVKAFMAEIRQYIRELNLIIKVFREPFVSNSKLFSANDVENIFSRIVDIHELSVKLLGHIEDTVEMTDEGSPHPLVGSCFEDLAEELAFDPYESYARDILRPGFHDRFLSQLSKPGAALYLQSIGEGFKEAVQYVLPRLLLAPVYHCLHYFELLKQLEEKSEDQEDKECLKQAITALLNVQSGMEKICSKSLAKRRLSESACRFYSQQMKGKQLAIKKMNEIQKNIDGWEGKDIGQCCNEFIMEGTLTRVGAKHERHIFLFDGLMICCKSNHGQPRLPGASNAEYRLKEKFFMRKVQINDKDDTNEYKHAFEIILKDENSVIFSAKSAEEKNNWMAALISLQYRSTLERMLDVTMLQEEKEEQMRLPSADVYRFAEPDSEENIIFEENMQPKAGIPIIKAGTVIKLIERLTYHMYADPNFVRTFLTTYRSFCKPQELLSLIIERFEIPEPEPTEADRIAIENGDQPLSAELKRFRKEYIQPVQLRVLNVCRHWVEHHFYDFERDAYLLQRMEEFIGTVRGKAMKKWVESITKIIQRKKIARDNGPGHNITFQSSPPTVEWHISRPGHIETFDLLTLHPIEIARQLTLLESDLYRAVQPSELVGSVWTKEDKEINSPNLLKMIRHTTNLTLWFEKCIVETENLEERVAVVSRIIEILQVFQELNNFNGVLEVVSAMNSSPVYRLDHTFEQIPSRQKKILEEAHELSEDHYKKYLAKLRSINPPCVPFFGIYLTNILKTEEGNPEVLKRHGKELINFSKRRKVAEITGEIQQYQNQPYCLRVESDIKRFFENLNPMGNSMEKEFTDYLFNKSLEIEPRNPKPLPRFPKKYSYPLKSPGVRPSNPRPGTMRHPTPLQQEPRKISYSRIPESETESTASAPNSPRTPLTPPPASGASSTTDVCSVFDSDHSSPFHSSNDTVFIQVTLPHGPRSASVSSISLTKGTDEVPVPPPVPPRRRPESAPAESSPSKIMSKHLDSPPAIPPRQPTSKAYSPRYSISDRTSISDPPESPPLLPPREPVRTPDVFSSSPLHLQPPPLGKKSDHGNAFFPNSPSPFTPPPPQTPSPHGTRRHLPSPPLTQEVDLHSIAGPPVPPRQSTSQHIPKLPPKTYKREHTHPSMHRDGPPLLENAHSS
How it was run: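 Compounds, at eight 3-fold dilutions from 3 µM, were mixed with GTP-loaded Tag1-KRAS G12C, Tag2-SOS1 and a terbium-cryptate donor plus XL665 acceptor antibody pair. After 2 h at room temperature, time-resolved FRET reported the KRAS–SOS1 interaction.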

[4] = molecular target: T2, SOS1 (Homo sapiens, UniProt Q07889); test: SOS-catalyzed nucleotide exchange assay (HTRF, SOS1-mediated GTP loading of KRAS G12D); type: biochemical; conditions: GST-KRAS G12D, HIS-SOS1cat, compound 128 pM to 10 µM; read-out: SOS-catalyzed nucleotide exchange assay
T2 construct: HIS-SOS1cat (160 nM; Cytoskeleton, US); His (N); purchased Cytoskeleton
T2 sequence (Q07889 564-1049 limits assumed): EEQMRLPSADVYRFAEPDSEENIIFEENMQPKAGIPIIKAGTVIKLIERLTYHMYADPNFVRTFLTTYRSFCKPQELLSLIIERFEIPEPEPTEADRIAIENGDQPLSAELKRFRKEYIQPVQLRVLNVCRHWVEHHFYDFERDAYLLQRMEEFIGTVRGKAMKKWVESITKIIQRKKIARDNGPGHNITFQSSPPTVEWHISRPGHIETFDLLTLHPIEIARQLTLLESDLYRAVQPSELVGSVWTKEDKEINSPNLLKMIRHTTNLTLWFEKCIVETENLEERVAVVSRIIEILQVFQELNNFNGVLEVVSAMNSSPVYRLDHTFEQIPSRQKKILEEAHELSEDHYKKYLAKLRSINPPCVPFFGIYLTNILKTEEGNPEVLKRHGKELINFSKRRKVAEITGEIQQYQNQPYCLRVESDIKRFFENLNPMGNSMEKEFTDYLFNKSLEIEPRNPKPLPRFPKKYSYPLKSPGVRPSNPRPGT

SMILES	IC50 [2] [nM]	IC50 [3] [nM]	IC50 [4] [nM]	further results
CNC(=O)c1cc(Oc2ccc(NC(=O)Nc3ccc(Cl)c(C(F)(F)F)c3)cc2)ccn1 [Sorafenib, sorafenib]	–	–	–	Synergy 2 ([1]; Ex. 1-2 log M -5.9, culture time 72 h): + (less than 10%)
O=c1cc(-c2ccc(O)c(O)c2O)oc2ccccc12 [Example 2-D08, 2-D08]	–	–	–	Synergy 2 ([1]; Ex. 1-2 log M -6.3, culture time 120 h): + (less than 10%)
C[C@]12C=CC(=O)C=C1CC[C@@H]1[C@@H]2[C@@H](O)C[C@@]2(C)[C@H]1CC[C@]2(O)C(=O)CO [prednisolone]	–	–	–	Concentration (log M) Anticancer agent ([1]; words printed in place of a concentration, culture time 72 h, with Ex. 1-2 log M -5.9): No Concentration -dependent change
Cc1cc(C(=O)N[C@H](C)c2cc(N)cc(C(F)(F)F)c2F)nn(-c2cncc(-c3cnnn3C)c2)c1=O [Example 2-5, N-[(1R)-1-[5-amino-2-fluoro-3-(trifluoromethyl)phenyl]ethyl]-5-methyl-1-[5-(3-methyltriazol-4-yl)-3-pyridyl]-6-oxo-pyridazine-3-carboxamide]	< 1000	< 50	< 50	–
C[C@@H](NC(=O)c1ccc(=O)n(-c2cncc(-c3cnnn3C)c2)n1)c1cccc(C(F)(F)F)c1F [Example 1-2, N-[(1R)-1-[2-fluoro-3-(trifluoromethyl)phenyl]ethyl]-1-[5-(3-methyltriazol-4-yl)-3-pyridyl]-6-oxo-pyridazine-3-carboxamide]	< 1000	50 to 150	50 to 150	EFFECT20 (concentration that induces 20% cell death), applied as final treatment concentration ([1]; culture time 72 h): 1854 nM; EFFECT20 (concentration that induces 20% cell death), applied as final treatment concentration ([1]; culture time 120 h): 652 nM
C[C@@H](NC(=O)c1cc(C2CC2)c(=O)n(-c2cncc(-c3cnnn3C)c2)n1)c1cccc(C(F)(F)F)c1F [Example 7-4, N-{(R)-1-[2-fluoro-3-(trifluoromethyl)phenyl]ethyl}-5-cyclopropyl-1-[5-(1-methyl-1H-1,2,3-triazol-5-yl)-3-pyridyl]-6-oxo-1,6-dihydropyridazine-3-carboxamide]	< 1000	< 50	< 50	–
CCc1cc(C(=O)N[C@H](C)c2cccc(C(F)(F)CO)c2F)nn(-c2cncc(-c3cnnn3C3CC3)c2)c1=O [Example 1-42, N-{(R)-1-[3-(1,1-difluoro-2-hydroxyethyl)-2-fluorophenyl]ethyl}-1-[5-(1-cyclopropyl-1H-1,2,3-triazol-5-yl)-3-pyridyl]-5-ethyl-6-oxo-1,6-dihydropyridazine-3-carboxamide]	< 1000	< 50	< 50	–
